Experimental data reported in patent US10294202B2, “Pyrrolidinones as herbicides” (FMC Corporation, priority 2013, dated 2019).
Values joined by “and” are separate entries in the source; they are usually repeats but may differ in a detail not shown here. Identical values can stand only once.

What was measured:
corn (ZEAMD) = experiment: Test H preemergence mixture test (Colby); format: in vivo, Zea mays; settings: Mesotrione alone 16 g a.i./ha, 21 d after treatment, scale 0 to 100
From the text: (§1) Colby's Equation was used to determine the herbicidal effects expected from the mixtures. Colby's Equation (Colby, S. R. “Calculating Synergistic and Antagonistic Responses of Herbicide Combinations,” Weeds, 15(1), pp 20-22 (1967)) calculates the expected additive effect of herbicidal mixtures and for two active ingredients is of the form: Pa+b=Pa+Pb−(PaPb/100)
(§2) where • Pa+b is the percentage effect of the mixture expected from additive contribution of the individual components: • Pa is the observed percentage effect of the first active ingredient at the same use rate as in the mixture, and • Pb is the observed percentage effect of the second active ingredient at the same use rate as in the mixture. In the following Tables, rates are shown in grams of active ingredient per hectare (g a.i./ha); “Obsd.” is the observed effect. “Exp.” is the expected effect calculated from Colby's Equation.
(§3) This test evaluated the effect of mixtures of compound 80 with several commercial herbicides on four plant species. Seeds of plant species selected from corn (ZEAMD, Zea mays), soybean (GLXMA, Glycine max), waterhemp (common waterhemp, AMATA, Amaranthus rudis), and giant foxtail (SETFA, Setaria faberii) were planted into a silt loam soil and treated preemergence with test chemicals formulated in a non-phytotoxic solvent mixture which included a surfactant and applied using a volume of 281 L/ha. Each treatment was replicated three times. Treated plants and controls were maintained in a greenhouse using supplemental lighting to maintain a photoperiod of about 16 h; daytime and nighttime temperatures were about 24-30° C. and 19-21° C., respectively. Nutrients were applied using a balanced fertilizer applied through the watering system. At 21 d after treatment, all species were compared to controls and visually evaluated. Plant response ratings were calculated as the means of the three replicates, are summarized in Tables H1 through H5, and are based on a scale of 0 to 100 where 0 is no effect and 100 is complete control. A dash (-) response means no test result. The Expected (Exp.) results were calculated using Colby's Equation as described for Test G above.

giant foxtail (SETFA) = experiment: Test H preemergence mixture test (Colby); format: in vivo, Setaria faberii; settings: Mesotrione alone 16 g a.i./ha, 21 d after treatment, scale 0 to 100
From the text: as §1, §2, §3

soybean (GLXMA) = experiment: Test H preemergence mixture test (Colby); format: in vivo, Glycine max; settings: Mesotrione alone 16 g a.i./ha, 21 d after treatment, scale 0 to 100
From the text: as §1, §2, §3

waterhemp (AMATA) = experiment: Test H preemergence mixture test (Colby); format: in vivo, Amaranthus rudis; settings: Mesotrione alone 16 g a.i./ha, 21 d after treatment, scale 0 to 100
From the text: as §1, §2, §3

[1] = test system: transplanted japonica rice (ORYSA); experiment: Test G paddy mixture test (Colby); format: in vivo, Oryza sativa; settings: applied alone, 14 d; for ORYSA Obsd.: scale 0-100
Protocol: (§4) Seeds of small-flower umbrella […], Cyperus difformis) and […], Heteranthera limosa) were sown on the soil surface in two separate quadrants of 11-cm (4-inch) tubs filled with steam pasteurized Tama soil. Simultaneously, plantings of […], Echinochloa crus-galli) and transplanted japonica rice (ORYSA, Oryza sativa) were established in separate “plug” flats. […] Herbicide application timing was targeted at the 2.0 to 2.5 leaf stage and the plants were treated with test chemicals formulated in a non-phytotoxic solvent. Treated plants and controls were maintained in a greenhouse for 14 d, after which time all species were compared to controls and visually evaluated. Plant response ratings are summarized in Tables G1 through G12, and are based on a scale of 0 to 100 where 0 is no effect and 100 is complete control. A dash (-) response means no test result. Colby's Equation was used to determine the herbicidal effects expected from the mixtures. Colby's Equation (Colby, S. R. “Calculating Synergistic and Antagonistic Responses of Herbicide Combinations,” Weeds, 15(1), pp 20-22 (1967)) calculates the expected additive effect of herbicidal mixtures and for two active ingredients is of the form: Pa+b=Pa+Pb-(PaPb/100) where • Pa+b is the percentage effect of the mixture expected from additive contribution of the individual components: • Pa is the observed percentage effect of the first active ingredient at the same use rate as in the mixture, and • Pb is the observed percentage effect of the second active ingredient at the same use rate as in the mixture. In the following Tables, rates are shown in grams of active ingredient per […]); “Obsd.” is the observed effect. “Exp.” is the expected effect calculated from Colby's Equation.

ducksalad (HETLI) = experiment: Test G paddy mixture test (Colby); format: in vivo, Heteranthera limosa; settings: applied alone, 14 d; for HETLI Obsd.: scale 0-100
Protocol: as §4

[2] = test system: small-flower umbrella sedge (CYPDI); experiment: Test G paddy mixture test (Colby); format: in vivo, Cyperus difformis; settings: applied alone, 14 d; for CYPDI Obsd.: scale 0-100
Protocol: as §4

barnyardgrass (ECHCG) = experiment: Test G paddy mixture test (Colby); format: in vivo, Echinochloa crus-galli; settings: applied alone, 14 d; for ECHCG Obsd.: scale 0-100
Protocol: as §4

CS(=O)(=O)c1ccc(C(=O)C2C(=O)CCCC2=O)c([N+](=O)[O-])c1 [Mesotrione, reference compound]
Plant response rating, Obsd., ZEAMD (corn (ZEAMD)): 12
Plant response rating, Obsd., SETFA (giant foxtail (SETFA)): 0
Plant response rating, Obsd., GLXMA (soybean (GLXMA)): 25
Plant response rating, Obsd., AMATA (waterhemp (AMATA)): 96

COCc1cccc(C(O)c2nc(OC)cc(OC)n2)c1NS(=O)(=O)C(F)F (centres unmarked) [Pyrimisulfan]
ORYSA Obsd. ([1]; 20 g a.i./ha): 25 and 20
HETLI Obsd. (ducksalad (HETLI); 20 g a.i./ha): 100
CYPDI Obsd. ([2]; 20 g a.i./ha): 98 and 100
ECHCG Obsd. (barnyardgrass (ECHCG); 20 g a.i./ha): 75 and 80

CS(=O)(=O)c1ccc(C(=O)C2C(=O)CCCC2=O)c(Cl)c1COCC1CCCO1 (centres unmarked) [Tefuryltrione]
ORYSA Obsd. ([1]; 100 g a.i./ha): 0
ORYSA Obsd. plant response rating (scale 0 to 100) ([1]; 100 g a.i./ha, flooded): 0
HETLI Obsd. (ducksalad (HETLI); 100 g a.i./ha): 90
HETLI Obsd. plant response rating (scale 0 to 100) (ducksalad (HETLI); 100 g a.i./ha, flooded): 100
CYPDI Obsd. ([2]; 100 g a.i./ha): 90
CYPDI Obsd. plant response rating (scale 0 to 100) ([2]; 100 g a.i./ha, flooded): 100
ECHCG Obsd. (barnyardgrass (ECHCG); 100 g a.i./ha): 0
ECHCG Obsd. plant response rating (scale 0 to 100) (barnyardgrass (ECHCG); 100 g a.i./ha, flooded): 40

COc1nc(OC)nc(C(=O)c2cccc(F)c2N(C)S(=O)(=O)C(F)F)n1 [Triafamone, N-[2-[(4,6-dimethoxy-1,3,5-triazin-2-yl)carbonyl]-6-fluorophenyl]-1,1-difluoro-N-methylmethanesulfonamide]
ORYSA Obsd. ([1]; 20 g a.i./ha): 0
HETLI Obsd. (ducksalad (HETLI); 20 g a.i./ha): 0
CYPDI Obsd. ([2]; 20 g a.i./ha): 0
ECHCG Obsd. (barnyardgrass (ECHCG); 20 g a.i./ha): 90 and 85
